Laboratory results taken from patent US9618524B2, “Method, composition, isolation and identification of a plaque particle and related biomarker” (Plaxgen Inc., priority 2012, dated 2017).

Experiments:
Experiment in all cases: Mass spectroscopy proteomics, semi-quantitative binding affinity of serum proteins (plaqueproteome, Table 2)
Details in all cases: higher number = stronger affinity
[1] = molecular target: T1, Abeta-42 plaque particles (Homo sapiens, UniProt P05067)
T1 construct: Abeta 1-42
Description: Next to isolate serum derived Abeta-42 plaque particles, the plasma or serum samples obtained from AD subjects were first centrifuged at 5,000 rpm for 5 min and the supernatants were transferred to new centrifuge tubes. Next, the supernatants were diluted in PBS to make 50% of the serum and plasma samples and used for incubation with Abeta-42 plaque oligomers/aggregates. Each assay was performed in 1 mL reaction (800 μL of 50% plasma or serum) and 200 μL (30 μg) of the Abeta-42 aggregates and the mixtures were incubated at 37° C. for 1 hr. To the mixture Thioflavin S dye (120 μg) was added and the sample was incubated for additional 30 min at 37° C. After the incubation, the mixture was directly used for sample acquisition using flow cytometer (FACS ARIA II, BD Biosciences, San Jose, Calif.). After initial detection of Abeta-42 plaque particles in the acquisition blot, gates were drawn in fluorescent dot blot to separately sort and isolate fluorescently labeled Abeta-42 particles.
(§1) For preparing trypsin digested peptide sequences, the isolated plaque particles were centrifuged at 10000 rpm for 5 min and the pellet containing plaque particles was resuspended in 100 μl PBS buffer. Stock solutions of digestion buffer (Ammonium Biocarbonate 50 mM), reducing buffer (DDT 100 mM) and alkylation buffer (lodoaceamide 100 mM) were prepared and stored at −20° C. for up to two months. For trypsin digestion, 100 μl of each plaque particles (2000 of Abeta-42, cholesterol, Tau and alpha-synuclein) were precipitated using cold acetone −80° C. by adding 4X's the volume. The samples were placed on dry ice for 10 min with intermittent vortex. Next, the samples were centrifuged at 4° C. at 10000 G for 10 min. Top layer of acetone was carefully removed from the tube with care not to disturb the plaque particles pellet. The samples were speed-vac for 10 min to ensure all acetone has been boiled away. The plaque particles pellet were reconstituted with 15 μl 8M Urea 100 mM Ammonium bicarbonate stock and 20 μl protease max solution. The protease max solution (Promega, Madison, Wis.) was prepared from stock by adding 60 μl 50 mM Ammonium bicarbonate and used for 3 solution digests (20 μl each). […] The tubes were incubated at 55° C. for 30 minutes. The tubes were then removed and brought to the room temperature followed by addition of 3.2 μl of 1M acrylamide and incubated at room temperature for 30 minutes. To the sample, 63 μL of 50 mM Ammonium bicarbonate was added for a final volume of 98 μl and 2 μl of trypsin (10 μg, Trypsin/Lys C Mix). After mixing the solution with pipet the samples were incubated at 37° C. overnight. After the overnight digest, the tryptic digest were quenched and acidified by adding 10 μl of 50% formic acid/water stock dilution. The samples were centrifuged at 10000 G for 2 minutes and purified using stage tip and used for MS/Mass analysis.
(§2) All MS/MS samples were analyzed using Sequest (Thermo Fisher Scientific, San Jose, Calif., USA; version 1.0). Sequest was set up to search the SUMS_uniprot_Human database (35847 entries) assuming the digestion enzyme strict trypsin. Sequest was searched with a fragment ion mass tolerance of 1.00 Da and a parent ion tolerance of 20 PPM. Propionamide of cysteine was specified in Sequest as a fixed modification. Oxidation of methionine and phospho of serine, threonine and tyrosine were specified in Sequest as variable modifications.
Scaffold (version Scaffold_4.2.1, Proteome Software Inc., Portland, Oreg.) was used to validate MS/MS based peptide and protein identifications. […] Protein probabilities were assigned by the Protein Prophet algorithm (Nesvizhskii, Al et al 2003). […] Proteins sharing significant peptide evidence were grouped into clusters. Proteins were annotated with GO terms from NCBI (downloaded Jan. 17, 2014).

[2] = system: Low density cholesterol (Chl small) plaque particles; design: species or system human
Description: (§3) The goal was to isolate plaque particles synthesized in the bio-fluids in a relatively pure form to enable their subsequent use for identification of components that contribute to the plaque formation. In order to isolate cholesterol plaque particles, the plasma or serum samples obtained from atherosclerotic subjects were first centrifuged at 5,000 rpm for 5 min and the supernatants were transferred to new centrifuge tubes. Next, the supernatants were diluted in PBS to make 50% of the serum and used for incubation with cholesterol oligomers/aggregates. Each assay was performed in 1 mL reaction (800 μL of 50% plasma or serum) and 200 μL (30 μg) of the Cholesterol aggregates and the mixtures were incubated at 37° C. for 1 hr After the incubation, the mixture was directly used for sample acquisition using flow cytometer (FACS ARIA II, BD Biosciences, San Jose, Calif.). […] In order to isolate these fractions, three sets of gates were drawn in the acquisition blot to separately sort and isolate High density or high complex cholesterol particles, Low density or low complex cholesterol particles and both High and low density cholesterol particles together.
as §1, §2
(§4) Scaffold (version Scaffold_4.2.1, Proteome Software Inc., Portland, Oreg.) was used to validate MS/MS based peptide and protein identifications. […] Protein probabilities were assigned by the Protein Prophet algorithm (Nesvizhskii, Al et al 2003).

[3] = system: High Density cholesterol (Chl Large) plaque particles; design: species or system human
Description: as §3, §1, §2, §4

[4] = molecular target: T2, alpha-synuclein plaque particles (Homo sapiens, UniProt P37840)
T2 construct: 140 amino acids polypeptide
Description: To prepare oligomers/aggregates of human alpha-synuclein (140 amino acids polypeptide), 1 mg of the recombinant alpha-synuclein protein was suspended in 1 mL of PBS and the sample was incubated at 37° C. for 2 hrs. After incubation, all the samples were centrifuged for 5 min. at 5000 rpm to remove precipitate, if any, and the supernatant containing oligomers/aggregates were used in vitro plaque particles formation assay. For detecting alpha-synuclein plaque particles Thioflavin S (Ex/Em=430 nm/550 nm) amyloid binding fluorescent dye (10 μg) was used.
Similarly, to isolate alpha-synuclein plaque particles, diluted plasma or serum samples obtained from AD subjects were used for incubation with alpha-synuclein plaque oligomers/aggregates. Each assay was performed in 1 mL reaction (800 μL of 50% plasma or serum) and 200 μL (30 μg) of the alpha-synuclein aggregates and the mixtures were incubated at 37° C. for 1 hr. To the mixture Thioflavin S dye (120 μg) was added and the sample was incubated for additional 30 min at 37° C. After the incubation, the mixture was directly used for sample acquisition using flow cytometer (FACS ARIA II, BD Biosciences, San Jose, Calif.). After initial detection of alpha-synuclein plaque particles, gates were drawn in the acquisition blot to separately sort and isolate fluorescently labeled alpha-synuclein particles.
as §1, §2
Scaffold (version Scaffold_4.2.1, Proteome Software Inc., Portland, Oreg.) was used to validate MS/MS based peptide and protein identifications.

Tau plaque particles = system: Tau plaque particles; design: species or system human
Description: For Tau-74 (74-102) (Exon 3/Insert 2 domain) preparation, 1 mg of Tau-74 was suspended in 1 mL of PBS and the sample was incubated at 37° C. for 2 hrs. Similarly for preparing Tau-275 (275-305) (Repeat 2 domain) 1 mg of the peptide was suspended in 1 mL of PBS and the sample was incubated at 37° C. for 2 hrs. After incubation, all the samples were centrifuged for 5 min. at 5000 rpm to remove precipitate, if any, and the supernatant containing oligomers/aggregates were used for in vitro amyloid plaque particles formation assay. For detecting Tau plaque particles, Thioflavin S (Ex/Em=430 nm/550 nm) amyloid binding fluorescent dye (10 μg) was used in the assay.
Next, to isolate Tau plaque particles, as performed for Abeta-42 and Abeta-28 plaque particles isolation, diluted serum samples were used for incubation separately with Tau-45, Tau-74 and Tau-275 oligomers/aggregates. Each assay was performed in 1 mL reaction (800 μL of 50% plasma or serum) and 200 μL (30 μg) of each Tau aggregates and the mixtures were incubated at 37° C. for 1 hr. To the each mixture Thioflavin S dye (120 μg) was added and the sample was incubated for additional 30 min at 37° C. After the incubation, each sample was directly used for sample acquisition using flow cytometer (FACS ARIA II, BD Biosciences, San Jose, Calif.). After initial detection of Tau plaque particles, gates were drawn in the acquisition blot to separately sort and isolate fluorescently labeled Tau plaque particles.
as §1, §2

Row | Substance | Semi-quantitative analysis of proteins binding to different plaque particles: Abeta-42 [1] | Semi-quantitative analysis of proteins binding to different plaque particles: Chl small [2] | Semi-quantitative analysis of proteins binding to different plaque particles: Chl Large [3] | Semi-quantitative analysis of proteins binding to different plaque particles: Synuclein [4] | Semi-quantitative analysis of proteins binding to different plaque particles: Tau (Tau plaque particles)
1 | Cluster of Alpha-2-macroglobulin | 32 | 43 | 43 | 44 | 45
2 | Cluster of Complement C3 | 63 | 67 | 73 | 71 | 85
3 | Cluster of Desmoplakin | 12 | 0 | 0 | 0 | 0
4 | Cluster of Haptoglobin | 25 | 31 | 29 | 24 | 26
5 | Cluster of Hemoglobin subunit beta | 4 | 2 | 3 | 5 | 3
6 | Cluster of Histone H1.2 | 2 | 0 | 0 | 0 | 0
7 | Cluster of Ig gamma-1 chain C region | 23 | 63 | 57 | 56 | 37
8 | Cluster of Ig heavy chain V-III region TEI | 7 | 6 | 5 | 4 | 5
9 | Cluster of Ig kappa chain V-I region HK102 | 5 | 1 | 1 | 1 | 1
10 | Cluster of Ig lambda-2 chain C regions | 9 | 9 | 5 | 8 | 11
11 | Cluster of Nucleolar RNA helicase 2 | 2 | 0 | 0 | 0 | 0
12 | Cluster of Platelet factor 4 | 2 | 0 | 1 | 1 | 1
13 | Coagulation factor XII | 0 | 0 | 0 | 1 | 1
